This is an account of results in ChEMBL document CHEMBL1148684, “Benzimidazole-2-carboxamides as novel NR2B selective NMDA receptor antagonists” (Bioorg Med Chem Lett, 2006).

The target of one experiment is Glutamate NMDA receptor. Nature of the experiment: Inhibition of NMDA-evoked increase in intracellular calcium ion in rat cortical cells. The experiment is classed as functional, cell-based.
Experiment [1] addresses Glutamate receptor ionotropic, NMDA 2B (Rattus norvegicus, UniProt Q00960). Nature of the experiment: Displacement of [3H]Ro25-6981 from NR2B NMDA receptor in rat forebrain membrane. The experiment is classed as cell membranes.
A short description of experiment [2]: Inhibition of NMDA-evoked current in EcR293 cells transfected with NR1/NR2D upto 10 uM by patch clamp method. The experiment is classed as functional, HEK293.
In experiment [3] the target is Glutamate NMDA receptor; GRIN1/GRIN2A (Homo sapiens) (UniProt Q05586+Q12879). Nature of the experiment: Inhibition of NMDA-evoked current in EcR293 cells transfected with NR1/NR2A upto 10 uM by patch clamp method. The note with it: HEK293. In kind it is functional, cell-based.
The next experiment deals with Mus musculus. Description: Analgesic activity against formalin-induced persistent pain in orally dosed NMRI mouse assessed as decrease in licking time relative to control. In kind it is functional. The note with it: po.

Glutamate receptor ionotropic, NMDA 2B, sequence (Q00960 whole entry): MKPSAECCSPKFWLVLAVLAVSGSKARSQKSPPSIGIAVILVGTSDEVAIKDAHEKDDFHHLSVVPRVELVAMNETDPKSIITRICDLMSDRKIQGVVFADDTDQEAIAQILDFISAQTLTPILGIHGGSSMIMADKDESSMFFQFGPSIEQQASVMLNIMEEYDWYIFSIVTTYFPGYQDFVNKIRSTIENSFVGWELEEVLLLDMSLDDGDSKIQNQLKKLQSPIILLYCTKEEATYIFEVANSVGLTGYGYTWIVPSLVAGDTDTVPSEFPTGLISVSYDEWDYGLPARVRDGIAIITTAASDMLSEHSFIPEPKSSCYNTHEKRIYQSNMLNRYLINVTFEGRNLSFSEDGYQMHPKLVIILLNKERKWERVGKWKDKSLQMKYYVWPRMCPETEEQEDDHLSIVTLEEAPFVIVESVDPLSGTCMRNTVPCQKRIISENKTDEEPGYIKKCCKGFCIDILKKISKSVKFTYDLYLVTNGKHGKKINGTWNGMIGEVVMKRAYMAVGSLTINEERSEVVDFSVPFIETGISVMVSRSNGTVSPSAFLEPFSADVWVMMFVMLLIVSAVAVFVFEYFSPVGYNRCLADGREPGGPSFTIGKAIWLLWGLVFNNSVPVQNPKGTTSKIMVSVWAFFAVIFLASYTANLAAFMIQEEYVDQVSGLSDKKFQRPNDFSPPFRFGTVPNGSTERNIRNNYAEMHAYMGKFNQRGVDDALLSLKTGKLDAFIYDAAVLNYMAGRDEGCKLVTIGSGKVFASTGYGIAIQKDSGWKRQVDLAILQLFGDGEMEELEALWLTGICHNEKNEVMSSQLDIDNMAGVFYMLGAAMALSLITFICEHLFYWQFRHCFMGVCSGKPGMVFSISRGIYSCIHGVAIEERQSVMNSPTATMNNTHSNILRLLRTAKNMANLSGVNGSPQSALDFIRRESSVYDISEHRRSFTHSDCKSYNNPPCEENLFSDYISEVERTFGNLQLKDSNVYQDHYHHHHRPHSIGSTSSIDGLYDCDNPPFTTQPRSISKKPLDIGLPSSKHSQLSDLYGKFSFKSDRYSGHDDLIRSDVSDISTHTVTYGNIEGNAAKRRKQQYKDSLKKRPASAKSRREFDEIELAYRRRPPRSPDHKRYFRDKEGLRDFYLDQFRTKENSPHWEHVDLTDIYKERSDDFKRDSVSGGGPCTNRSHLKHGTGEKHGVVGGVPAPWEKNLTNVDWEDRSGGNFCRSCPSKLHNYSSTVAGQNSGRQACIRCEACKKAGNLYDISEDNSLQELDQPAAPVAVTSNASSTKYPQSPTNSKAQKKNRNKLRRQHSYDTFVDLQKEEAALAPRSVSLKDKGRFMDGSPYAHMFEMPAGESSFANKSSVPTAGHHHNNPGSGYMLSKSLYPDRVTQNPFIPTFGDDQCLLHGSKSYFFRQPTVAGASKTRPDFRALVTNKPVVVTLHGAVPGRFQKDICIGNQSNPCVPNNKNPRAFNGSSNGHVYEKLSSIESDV

With `Cc1ccc(OC2CCN(C(=O)c3nc4ccc(O)cc4[nH]3)CC2)cc1`, the IC50 at Glutamate NMDA receptor came to 1.1 nM; in experiment [1], 3 nM.
In the same order, the values of `O=C(c1nc2ccc(O)cc2[nH]1)N1CCC(Cc2cccc(F)c2)CC1` are 6 nM and 5.2 nM.
As for `Cc1ccccc1CC1CCN(C(=O)c2nc3cc(O)ccc3[nH]2)CC1`, the IC50 worked out at 12 nM on Glutamate NMDA receptor and 8.4 nM in experiment [1].
`CS(=O)(=O)Nc1ccc2[nH]c(C(=O)N3CCC(Cc4ccccc4)CC3)nc2c1`: the 50% inhibitory concentration (IC50) on Glutamate NMDA receptor was determined as 1.3 nM; in experiment [1], 3 nM.
For `CS(=O)(=O)Nc1ccc2nc(CN3CCC(Cc4ccccc4)CC3)[nH]c2c1` the same measures were 8.6 nM and 3.5 nM.
Regarding `O=C(c1nc2c(O)cccc2[nH]1)N1CCC(Cc2ccccc2)CC1`, the IC50 at Glutamate NMDA receptor turned out to be 3 nM; in experiment [1], 10 nM.
For the compound `O=C(c1nc2ccc(O)cc2[nH]1)N1CCC(Cc2ccccc2)CC1`, the IC50 in experiment [1] stood at 4 nM. For the same compound, the Inhibition in experiment [2] is under 20%. Also, in experiment [3], the inhibition is under 20%. For the same compound, in the experiment on Mus musculus, the ED50 amounted to 1.6 mg/kg.
With `Cc1ccc(CC2CCN(C(=O)c3nc4ccc(O)cc4[nH]3)CC2)cc1`, the IC50 on Glutamate NMDA receptor is 8.7 nM; in experiment [1], 4.4 nM.
Turning to `COc1cccc(CC2CCN(C(=O)c3nc4ccc(O)cc4[nH]3)CC2)c1`, the IC50 on Glutamate NMDA receptor amounted to 2.5 nM; in experiment [1] it was 3.2 nM.
For `C[C@@H](CN1CCC(Cc2ccccc2)CC1)[C@@H](O)c1ccc(O)cc1` the same measures were 159 nM and 6 nM.
For `O=C(c1nc2ccc(O)cc2[nH]1)N1CCC(Oc2ccc(Cl)cc2)CC1`, the IC50 worked out at 1.7 nM on Glutamate NMDA receptor and 14 nM in experiment [1].
For `Nc1ccc2[nH]c(C(=O)N3CCC(Cc4ccccc4)CC3)nc2c1` the same measures were 40 nM and 143 nM.
For `O=c1[nH]c2ccc([S+]([O-])CCN3CCC(Cc4ccc(F)cc4)CC3)cc2o1` (centres undefined) [BESONPRODIL] the same measures were 6.6 nM and 4 nM.
For `O=C(c1nc2ccc(O)cc2[nH]1)N1CCC(Oc2ccc(F)cc2)CC1` the same measures were 2.9 nM and 6 nM.
With `Cc1cccc(CC2CCN(C(=O)c3nc4ccc(O)cc4[nH]3)CC2)c1`, the IC50 came to 2.4 nM on Glutamate NMDA receptor and 5 nM in experiment [1].
In the same order, the values of `O=C(c1nc2ccc(O)cc2[nH]1)N1CCC(Cc2ccc(F)cc2)CC1` are 1.2 nM and 4 nM.
